Data: ChEMBL document CHEMBL4382217 (Bioorg Med Chem, 2018)

Experiments:
[1] = Selectivity index, ratio of GI50 for human A431 cells harboring WT EGFR to GI50 for human NCI-H1975 cells harboring EGFR T790M/L858R double mutant
NCI-H1975 = experiment: Antiproliferative activity against human NCI-H1975 cells harboring EGFR T790M/L858R double mutant after 72 hrs by MTS assay; assay type: functional, cell-based; conditions: Homo sapiens, NCI-H1975, 72 h
[2] = (§1) Antiproliferative activity against human A431 cells harboring WT EGFR after 72 hrs by MTS assay; assay type: cell-based, A-431; conditions: human, A431 cells harboring WT EGFR
[3] = target: Epidermal growth factor receptor (Homo sapiens, UniProt P00533, L858R); experiment: Inhibition of recombinant human GST-tagged EGFR L858R mutant expressed in baculovirus expression system by fluorescence assay
Chain of Epidermal growth factor receptor (Homo sapiens, UniProt P00533, L858R) (P00533 25-1210 L858R limits assumed): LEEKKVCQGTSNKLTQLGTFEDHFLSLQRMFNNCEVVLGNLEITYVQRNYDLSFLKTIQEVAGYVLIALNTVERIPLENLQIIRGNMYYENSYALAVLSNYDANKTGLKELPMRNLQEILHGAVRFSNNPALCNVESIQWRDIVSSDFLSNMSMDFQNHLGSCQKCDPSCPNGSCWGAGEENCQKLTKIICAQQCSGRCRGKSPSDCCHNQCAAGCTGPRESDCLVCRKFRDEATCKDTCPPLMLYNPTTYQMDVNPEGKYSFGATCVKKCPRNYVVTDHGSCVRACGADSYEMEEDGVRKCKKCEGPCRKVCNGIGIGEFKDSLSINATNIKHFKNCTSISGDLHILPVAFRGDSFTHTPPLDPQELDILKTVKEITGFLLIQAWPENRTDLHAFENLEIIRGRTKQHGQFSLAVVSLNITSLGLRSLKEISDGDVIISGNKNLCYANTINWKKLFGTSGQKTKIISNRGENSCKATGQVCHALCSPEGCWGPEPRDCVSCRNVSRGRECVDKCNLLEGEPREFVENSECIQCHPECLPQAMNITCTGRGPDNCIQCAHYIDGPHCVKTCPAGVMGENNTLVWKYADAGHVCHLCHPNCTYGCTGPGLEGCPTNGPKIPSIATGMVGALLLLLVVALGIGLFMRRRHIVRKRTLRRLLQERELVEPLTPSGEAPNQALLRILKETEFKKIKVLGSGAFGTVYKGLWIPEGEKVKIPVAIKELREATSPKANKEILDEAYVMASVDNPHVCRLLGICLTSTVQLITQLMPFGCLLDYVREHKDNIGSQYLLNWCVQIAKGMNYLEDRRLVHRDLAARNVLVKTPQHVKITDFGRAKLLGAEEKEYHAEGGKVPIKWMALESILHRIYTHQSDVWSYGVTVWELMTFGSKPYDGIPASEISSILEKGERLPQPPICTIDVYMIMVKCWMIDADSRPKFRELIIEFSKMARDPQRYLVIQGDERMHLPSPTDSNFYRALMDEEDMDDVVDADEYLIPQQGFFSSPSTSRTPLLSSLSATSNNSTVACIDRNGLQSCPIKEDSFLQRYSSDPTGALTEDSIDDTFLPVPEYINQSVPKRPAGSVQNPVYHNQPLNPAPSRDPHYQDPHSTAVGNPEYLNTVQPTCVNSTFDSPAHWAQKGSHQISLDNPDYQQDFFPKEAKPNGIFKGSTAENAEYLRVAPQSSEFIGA

HCC827 = experiment: Antiproliferative activity against human HCC827 cells harboring EGFR mutant after 72 hrs by MTS assay; assay type: functional, cell-based; conditions: HCC827, 72 h
Homo sapiens = organism: Homo sapiens; experiment: Selectivity index, ratio of IC50 for recombinant human N-terminal GST-tagged EGFR (696-end residues) expressed in baculovirus expression system to IC50 for recombinant human N-terminal GST-tagged EGFR T790M/L858R double mutant (696-end residues)
[4] = target: Epidermal growth factor receptor (Homo sapiens, UniProt P00533); experiment: Inhibition of recombinant human N-terminal GST-tagged EGFR (696-end residues) expressed in baculovirus expression system using Srctide as substrate by fluorescence assay
Chain of Epidermal growth factor receptor (Homo sapiens, UniProt P00533) (P00533 whole entry): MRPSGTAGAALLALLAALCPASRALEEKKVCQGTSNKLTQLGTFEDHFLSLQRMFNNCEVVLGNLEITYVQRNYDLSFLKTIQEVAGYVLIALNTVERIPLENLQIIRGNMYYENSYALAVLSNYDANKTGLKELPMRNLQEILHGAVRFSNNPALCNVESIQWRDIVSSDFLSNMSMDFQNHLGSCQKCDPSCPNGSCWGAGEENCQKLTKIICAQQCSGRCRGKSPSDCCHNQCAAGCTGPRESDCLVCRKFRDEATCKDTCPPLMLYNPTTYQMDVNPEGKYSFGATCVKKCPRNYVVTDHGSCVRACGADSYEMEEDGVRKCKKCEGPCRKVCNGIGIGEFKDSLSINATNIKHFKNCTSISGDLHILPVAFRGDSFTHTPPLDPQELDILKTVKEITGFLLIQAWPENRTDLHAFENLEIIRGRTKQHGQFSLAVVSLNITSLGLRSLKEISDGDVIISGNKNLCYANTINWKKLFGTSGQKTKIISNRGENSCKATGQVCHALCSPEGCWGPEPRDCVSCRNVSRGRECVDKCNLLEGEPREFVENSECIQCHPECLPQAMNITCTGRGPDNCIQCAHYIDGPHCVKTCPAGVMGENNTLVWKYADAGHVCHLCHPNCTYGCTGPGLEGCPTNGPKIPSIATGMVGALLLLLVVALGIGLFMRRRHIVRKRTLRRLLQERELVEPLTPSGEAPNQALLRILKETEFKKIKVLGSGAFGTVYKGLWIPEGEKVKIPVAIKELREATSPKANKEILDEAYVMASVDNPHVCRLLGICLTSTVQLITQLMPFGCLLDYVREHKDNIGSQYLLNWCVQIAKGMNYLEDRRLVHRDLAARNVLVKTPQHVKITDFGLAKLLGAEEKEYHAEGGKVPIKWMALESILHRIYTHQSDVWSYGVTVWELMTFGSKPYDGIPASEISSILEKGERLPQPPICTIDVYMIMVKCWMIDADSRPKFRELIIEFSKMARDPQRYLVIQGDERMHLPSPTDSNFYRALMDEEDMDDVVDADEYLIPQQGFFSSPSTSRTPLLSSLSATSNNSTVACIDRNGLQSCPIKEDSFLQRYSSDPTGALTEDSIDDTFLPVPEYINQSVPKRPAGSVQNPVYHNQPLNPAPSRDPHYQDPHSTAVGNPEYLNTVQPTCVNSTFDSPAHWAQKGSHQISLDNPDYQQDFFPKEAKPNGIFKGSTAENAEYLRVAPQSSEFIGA

Calu-3 = experiment: Antiproliferative activity against human Calu3 cells harboring WT EGFR after 72 hrs by MTS assay; assay type: cell-based; conditions: Calu-3, 72 h
[5] = target: Epidermal growth factor receptor (Homo sapiens, UniProt P00533, L858R/T790M); experiment: Inhibition of recombinant human N-terminal GST-tagged EGFR T790M/L858R double mutant (696-end residues) by fluorescence assay
Chain of Epidermal growth factor receptor (Homo sapiens, UniProt P00533, L858R/T790M) (P00533 25-1210 T790M/L858R limits assumed): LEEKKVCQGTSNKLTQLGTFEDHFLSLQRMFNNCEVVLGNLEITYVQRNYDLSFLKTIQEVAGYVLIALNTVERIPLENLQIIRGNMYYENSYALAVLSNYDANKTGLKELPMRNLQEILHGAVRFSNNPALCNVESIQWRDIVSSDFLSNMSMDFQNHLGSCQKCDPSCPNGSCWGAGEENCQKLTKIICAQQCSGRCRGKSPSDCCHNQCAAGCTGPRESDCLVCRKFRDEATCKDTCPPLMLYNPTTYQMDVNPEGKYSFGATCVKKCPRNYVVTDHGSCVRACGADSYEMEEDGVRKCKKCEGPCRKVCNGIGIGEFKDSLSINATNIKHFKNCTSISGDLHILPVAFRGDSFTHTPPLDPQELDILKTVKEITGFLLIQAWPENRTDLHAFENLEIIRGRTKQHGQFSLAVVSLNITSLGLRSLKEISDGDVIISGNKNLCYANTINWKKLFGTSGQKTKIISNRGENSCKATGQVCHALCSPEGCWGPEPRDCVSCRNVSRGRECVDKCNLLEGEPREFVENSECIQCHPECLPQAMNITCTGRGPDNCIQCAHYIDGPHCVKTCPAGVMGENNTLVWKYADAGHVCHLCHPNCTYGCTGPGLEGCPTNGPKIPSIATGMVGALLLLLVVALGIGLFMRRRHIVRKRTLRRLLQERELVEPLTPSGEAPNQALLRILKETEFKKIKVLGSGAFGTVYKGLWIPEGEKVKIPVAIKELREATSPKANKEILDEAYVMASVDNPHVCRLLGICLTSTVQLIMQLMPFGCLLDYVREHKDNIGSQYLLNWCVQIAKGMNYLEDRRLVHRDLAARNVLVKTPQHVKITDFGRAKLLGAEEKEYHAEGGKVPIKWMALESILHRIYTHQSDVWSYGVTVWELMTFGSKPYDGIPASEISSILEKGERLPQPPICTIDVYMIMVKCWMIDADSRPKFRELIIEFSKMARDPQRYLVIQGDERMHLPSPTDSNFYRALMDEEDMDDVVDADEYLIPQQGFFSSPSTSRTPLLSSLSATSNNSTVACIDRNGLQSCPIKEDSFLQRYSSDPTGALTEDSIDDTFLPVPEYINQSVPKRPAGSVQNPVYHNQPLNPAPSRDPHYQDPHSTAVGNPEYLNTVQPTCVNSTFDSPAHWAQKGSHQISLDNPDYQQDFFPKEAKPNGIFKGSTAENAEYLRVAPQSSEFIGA

PC-9 = experiment: Antiproliferative activity against human PC9 cells harboring EGFR mutant after 72 hrs by MTS assay; assay type: functional, cell-based; conditions: PC-9, 72 h
Calu-6 = experiment: Antiproliferative activity against human Calu6 cells harboring WT EGFR after 72 hrs by MTS assay; assay type: cell-based; conditions: Calu-6, 72 h
A-431 = experiment: as §1; assay type: cell-based; conditions: Homo sapiens, A-431, 72 h
[6] = Drug level in human liver microsomes treated with N-(2-((2-(Dimethylamino)ethyl)(methyl)amino)-4-methoxy-5-((4-(1-methyl-1H-pyrrolo[3,2-b]pyridin-3-yl)pyrimidin-2-yl)amino)phenyl)acrylamide by LC-MS/MS analysis; assay type: ADME, Microsome

Compound | GI50 (NCI-H1975) | RatioGI50 [1] | GI50 at 72 h [2] | further results
C=CC(=O)Nc1cc(Nc2nccc(-c3nn(C)c4ccsc34)n2)c(OC(F)F)cc1N(C)CCN(C)C | 6.5 nM | 13.2 | 85.8 nM | –
C=CC(=O)Nc1cc(Nc2nccc(-c3noc4ccccc34)n2)c(OC)cc1N(C)CCN(C)C | 7.3 nM | 15.1 | 110 nM | –
C=CC(=O)Nc1cc(Nc2nccc(-c3nn(C)c4ccsc34)n2)c(OC)cc1N(C)CCN(C)C | 10.7 nM | 19.5 | 209 nM | –
C=CC(=O)Nc1cc(Nc2nccc(-c3cn(C)c4cccnc34)n2)c(OC)cc1N1CCN(C)CC1 | 175 nM | 8.9 | 1560 nM | –
C=CC(=O)Nc1cc(Nc2nccc(-c3cn(C)c4cccnc34)n2)c(OC)cc1NCCN(C)C | – | – | – | IC50 [3]: 12000 nM; IC50 (HCC827): 75 nM; Ratio IC50 (Homo sapiens): 5.1; IC50 [4]: 77000 nM; IC50 (NCI-H1975): 790 nM; IC50 (Calu-3): > 10000 nM; IC50 [5]: 15000 nM; IC50 (PC-9): 740 nM; IC50 (Calu-6): > 10000 nM; IC50 (A-431): 6780 nM; Drug metabolism [6]: Metabolite_Detected
C=CC(=O)Nc1cc(Nc2nccc(-c3noc4ccccc34)n2)c(OC(F)F)cc1N(C)CCN(C)C | 4 nM | 22.3 | 89.1 nM | –

More lines, in order of falling GI50 (NCI-H1975), values ahead:

GI50 (NCI-H1975) | Compound | RatioGI50 [1] | GI50 at 72 h [2] | further results
184 nM | C=CC(=O)Nc1cc(Nc2nccc(-c3cn(C)c4cccnc34)n2)c(OC(F)F)cc1N1CCC[C@H]1CN(C)C | 3.9 | 724 nM | –
168 nM | C=CC(=O)Nc1cc(Nc2nccc(-c3noc4ccccc34)n2)c(OC)cc1N1CCN(C)CC1 | 4.3 | 728 nM | –
6.7 nM | C=CC(=O)Nc1cc(Nc2nccc(-c3cn(C)c4cccnc34)n2)c(OC(F)F)cc1N(C)CCN(C)C | 44.1 | 296 nM | –
